Results reported in patent publication US6946458B2, “N-thiolated beta-lactams: novel antibacterial agents for methicillin-resistant Staphylococcus aureus” (University of South Florida, priority 1999, dated 2005).

Experiments:
N. gonorrhoeae = experiment: Kirby-Bauer agar disk diffusion; type: cell-based, Neisseria gonorrhoeae; details: Table 1; 6-mm disks, 20 μg test compound, 24 h, triplicate; β-lactamase positive
Method: (§1) In this study, a selection of N-methylthio-substituted β-lactams are examined for antimicrobial activity by the Kirby-Bauer disk diffusion method on agar plates. A variety of common Gram-positive and Gram-negative bacteria are tested, including clinical isolates of methicillin-resistant Staphylococcus aureus (MRSA).
(§2) Compound susceptibility measurements are obtained from agar disk diffusion experiments using 6-mm air-dried disks impregnated with 20 μg of the test compound. The values correspond to the average diameters in mm (triplicate experiments) for the zone of growth inhibition observed after 24 h. Staphylococcus aureus (ATCC 25923) and β-lactamase-producing strains of methicillin-resistant Staphylococcus aureus (labeled as MRSA USF652-659) are obtained from Lakeland Regional Medical Center, Lakeland, Fla. Staphylococcus epidermidis, Staphylococcus simulans, Staphylococcus simulans, and Microcossus luteus are clinical isolates from University of South Florida Medical Clinic. Nieserria gonnorhoeae (β-lactamase positive) is obtained from the Tampa Branch State Laboratory. PenG is penicillin G (potassium salt). Table 1 provides the zones of growth inhibition that are observed after 24 hours using the lactams of FIGS. 1A-1I (designated A-I, respectively).

S. simulans (ATCC 11631) = experiment: Kirby-Bauer agar disk diffusion; type: cell-based, Staphylococcus simulans; details: 6-mm disks, 20 μg test compound
Method: as §1, §2
(§3) Of particular interest is the ability of these compounds to retain their effectiveness against penicillin-resistant strains of Staphylococcus aureus, a dangerous hospital-borne pathogen which is becoming difficult to treat with conventional antibiotic therapy. The lactams were screened for antibacterial activity by disk diffusion on agar plates, and the resulting zones of bacterial growth inhibition measured (see Table 3; each lactam is designated by Figure number).
(§4) Table 3: Growth inhibition zones obtained from agar disk diffusion experiments using 6-mm air-dried disks impregnated with 20 μg of the test compound. The values correspond to the average diameters in mm for the zone of growth inhibition observed after 24 hours. Staphylococcus aureus and β-lactamase-producing strains of methicillin-resistant Staphylococcus aureus (labeled MRSA USF652-659) are obtained from a clinical testing laboratory at Lakeland Regional Medical Center, Lakeland, Fla.

[1] = tested on: Staphylococcus aureus (ATCC 25923); experiment: Kirby-Bauer agar disk diffusion; type: cell-based; details: 6-mm disks, 20 μg test compound
Method: as §1, §2, §3, §4

Micrococcus luteus = experiment: Kirby-Bauer agar disk diffusion; type: cell-based; details: 6-mm disks, 20 μg test compound
Method: as §1, §2, §3, §4

[2] = tested on: Staphylococcus epidermidis; experiment: Kirby-Bauer agar disk diffusion; type: cell-based; details: 6-mm disks, 20 μg test compound
Method: as §1, §2, §3, §4

[3] = tested on: S. saprophyticus (ATCC 3552); experiment: Kirby-Bauer agar disk diffusion; type: cell-based, Staphylococcus saprophyticus; details: 6-mm disks, 20 μg test compound
Method: as §1, §2, §3, §4

MRSA USF653 = experiment: Kirby-Bauer agar disk diffusion; type: cell-based, Staphylococcus aureus; details: 6-mm disks, 20 μg test compound
Method in brief: (§5)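 Kirby-Bauer disk diffusion on agar with 6-mm air-dried disks carrying 20 μg compound against β-lactamase-producing MRSA clinical isolates. Values are mean inhibition-zone diameters (mm, triplicate) read after 24 h.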

MRSA USF654 = experiment: Kirby-Bauer agar disk diffusion; type: cell-based, Staphylococcus aureus; details: 6-mm disks, 20 μg test compound
Method in brief: as §5

MRSA USF657 = experiment: Kirby-Bauer agar disk diffusion; type: cell-based, Staphylococcus aureus; details: 6-mm disks, 20 μg test compound
Method in brief: as §5

MRSA USF655 = experiment: Kirby-Bauer agar disk diffusion; type: cell-based, Staphylococcus aureus; details: 6-mm disks, 20 μg test compound
Method in brief: as §5

MRSA USF659 = experiment: Kirby-Bauer agar disk diffusion; type: cell-based, Staphylococcus aureus; details: 6-mm disks, 20 μg test compound
Method in brief: as §5

MRSA USF656 = experiment: Kirby-Bauer agar disk diffusion; type: cell-based, Staphylococcus aureus; details: 6-mm disks, 20 μg test compound
Method in brief: as §5

MRSA USF652 = experiment: Kirby-Bauer agar disk diffusion; type: cell-based, Staphylococcus aureus; details: 6-mm disks, 20 μg test compound
Method in brief: as §5

MRSA USF658 = experiment: Kirby-Bauer agar disk diffusion; type: cell-based, Staphylococcus aureus; details: 6-mm disks, 20 μg test compound
Method in brief: as §5

[4] = tested on: Staphylococcus strains including MRSA; experiment: antibacterial activity screening, results stated in words; type: cell-based, Staphylococcus aureus; details: Example 2; all microorganisms tested
Text: However, the N-alkylthio substituent is required, since reduction to the N—H analogue completely destroys the biological activity. […]
as §3
With the lactam of FIG. 6A serving as a lead structure, other C4-unsaturated derivatives (FIGS. 6B-6E) and C4-saturated analogues (FIGS. 6F-6H), were examined all of which also have activity against Staphylococcus strains including MRSA.
Scheme I summarizes the synthesis of ester compounds 4. 4-Carboxy benzaldehyde (1) is coupled with the appropriate alcohol using DCC/DMAP, followed by reaction with p-anisidine, to give imines 2. Staudinger coupling of methoxyacetyl chloride with imine 2 gives N-aryl protected β-lactam 3. N-Dearylation of β-lactam 3 with ceric ammonium nitrate and methylthiolation with N-(methylthio)phthalimide affords N-methylthio β-lactams 4. These compounds are tested for antibacterial activity by the Kirby-Bauer method of disc diffusion on agar plates. [drawing 7]

Compound	zone of growth inhibition, average diameter (N. gonorrhoeae) [mm]	zone of growth inhibition, average diameter (S. simulans (ATCC 11631); Table 1, 24 h, triplicate) [mm]	zone of growth inhibition, average diameter ([1]; Table 1, 24 h, triplicate) [mm]	zone of growth inhibition, average diameter (Micrococcus luteus; Table 1, 24 h, triplicate) [mm]	zone of growth inhibition, average diameter ([2]; Table 1, 24 h, triplicate) [mm]	zone of growth inhibition, average diameter ([3]; Table 1, 24 h, triplicate) [mm]	zone of growth inhibition, average diameter (MRSA USF653; Table 1, 24 h, triplicate) [mm]	zone of growth inhibition, average diameter (MRSA USF654; Table 1, 24 h, triplicate) [mm]	zone of growth inhibition, average diameter (MRSA USF657; Table 1, 24 h, triplicate) [mm]	zone of growth inhibition, average diameter (MRSA USF655; Table 1, 24 h, triplicate) [mm]	zone of growth inhibition, average diameter (MRSA USF659; Table 1, 24 h, triplicate) [mm]	zone of growth inhibition, average diameter (MRSA USF656; Table 1, 24 h, triplicate) [mm]	zone of growth inhibition, average diameter (MRSA USF652; Table 1, 24 h, triplicate) [mm]	zone of growth inhibition, average diameter (MRSA USF658; Table 1, 24 h, triplicate) [mm]	also measured
COC1C(=O)N(SC)C1c1cccs1 (racemic) [Lactam I]	11	0	27	15	28	20	28	27	26	29	24	28	28	26	–
COC1C(=O)N(SC)C1c1cccc([N+](=O)[O-])c1 (racemic) [Lactam E]	12	13	15	22	20	15	22	16	18	14	11	18	17	17	–
COC1C(=O)N(SC)C1c1ccccc1C (racemic) [Lactam H]	12	14	23	21	25	15	27	23	23	23	20	25	23	22	–
COC1C(=O)N(SC)C1c1ccc(C#N)cc1 (racemic) [Lactam G]	12	0	14	21	20	14	16	12	10	12	12	13	14	12	–
COC1C(=O)N(SC)C1C#Cc1ccccc1 (racemic) [Lactam A]	13	21	27	23	30	22	30	28	30	29	25	30	31	27	–
COC1C(=O)N(SC)C1C(C#Cc1ccccc1)OC(C)=O (mixture of isomers) [FIG. 3H]	–	–	–	–	–	–	–	–	–	–	–	–	–	–	zone of growth inhibition, average diameter (S. simulans (ATCC 11631); Table 3, 24 hours): 0 mm; zone of growth inhibition, average diameter ([1]; Table 3, 24 hours): 0 mm; zone of growth inhibition, average diameter (Micrococcus luteus; Table 3, 24 hours): 0 mm; zone of growth inhibition, average diameter ([2]; Table 3, 24 hours): 0 mm; zone of growth inhibition, average diameter ([3]; Table 3, 24 hours): 0 mm; antimicrobial activity, in words [4]: inactive; zone of growth inhibition, average diameter (MRSA USF653; Table 3, 24 hours): 0 mm; zone of growth inhibition, average diameter (MRSA USF654; Table 3, 24 hours): 0 mm; zone of growth inhibition, average diameter (MRSA USF657; Table 3, 24 hours): 0 mm; zone of growth inhibition, average diameter (MRSA USF655; Table 3, 24 hours): 0 mm; zone of growth inhibition, average diameter (MRSA USF659; Table 3, 24 hours): 0 mm; zone of growth inhibition, average diameter (MRSA USF656; Table 3, 24 hours): 0 mm; zone of growth inhibition, average diameter (MRSA USF652; Table 3, 24 hours): 0 mm; zone of growth inhibition, average diameter (MRSA USF658; Table 3, 24 hours): 0 mm
COC1C(=O)N2SC(c3ccccc3)=C(I)C12 (centres unmarked) [FIG. 2D]	–	–	–	–	–	–	–	–	–	–	–	–	–	–	zone of growth inhibition, average diameter (S. simulans (ATCC 11631); Table 3, 24 hours): 0 mm; zone of growth inhibition, average diameter ([1]; Table 3, 24 hours): 0 mm; zone of growth inhibition, average diameter (Micrococcus luteus; Table 3, 24 hours): 0 mm; zone of growth inhibition, average diameter ([2]; Table 3, 24 hours): 0 mm; zone of growth inhibition, average diameter ([3]; Table 3, 24 hours): 0 mm; antimicrobial activity, in words [4]: no antimicrobial activity; zone of growth inhibition, average diameter (MRSA USF653; Table 3, 24 hours): 0 mm; zone of growth inhibition, average diameter (MRSA USF654; Table 3, 24 hours): 0 mm; zone of growth inhibition, average diameter (MRSA USF657; Table 3, 24 hours): 0 mm; zone of growth inhibition, average diameter (MRSA USF655; Table 3, 24 hours): 0 mm; zone of growth inhibition, average diameter (MRSA USF659; Table 3, 24 hours): 0 mm; zone of growth inhibition, average diameter (MRSA USF656; Table 3, 24 hours): 0 mm; zone of growth inhibition, average diameter (MRSA USF652; Table 3, 24 hours): 0 mm; zone of growth inhibition, average diameter (MRSA USF658; Table 3, 24 hours): 0 mm
